Counter-ions that a name gives are not always drawn. Like-named read-outs stand apart in the source and are kept apart here. Blank lines part the entries; values can stand above or below the molecule they belong to.
Columns and labels:
MCF-7 cells = test: MCF-7 cell proliferation inhibition; assay type: cell-based; conditions: read-out: IC50 for MCF-7 cell proliferation inhibition
Procedure: EMEM medium was purchased from Wisent, and fetal bovine serum was purchased from Biosera. Promega CellTiter-Glo reagent. MCF-7 cells were purchased from the Cell Bank of Type Culture Collection Committee of the Chinese Academy of Sciences. Nivo5 multi-marker analyzer (PerkinElmer).
MCF-7 cells were seeded in a white 384-well plate at 600 cells/[…] suspension/well. The plate was incubated in a CO2 incubator overnight.
On the day of treatment, a day 0 plate coated under the same conditions the day before was taken, centrifuged to remove the medium, added with 25 microliters of Promega CellTiter-Glo reagent to each well, and incubated at room temperature for 10 minutes to stabilize the luminescence signal. Measures were read by PerkinElmer Nivo multi-marker analyzer as an initial value for 0% inhibition.
The test compounds were serially 5-fold diluted to the 10th concentration with a multichannel pipette, i.e., from 2 millimoles to […], and the experiments were set up in duplicate. 47.5 microliters of medium was added to the intermediate plate, 2.5 microliters of serially diluted compounds were transferred to corresponding wells of the intermediate plate, and after mixing, 5 microliters of the mixture per well was transferred to the cell plate. The plate was incubated in a CO2 incubator for 6 days.
After 6 days of co-incubation with the compounds, the plate was centrifuged to remove the medium, added with 25 microliters of Promega CellTiter-Glo reagent to each well, and incubated at room temperature for 10 minutes to stabilize the luminescence signal. Measures were read by PerkinElmer Nivo multi-marker analyzer.
The original data was converted into inhibition rate by the formula: % inhibition=((RFUCmpd−AVER(RFUNeg.Ctrl))/((AVER(RFUDay0)−AVER(RFUNeg.Ctrl))×100%. Curve fitting was conducted and IC50 was calculated.

[1] = test system: MCF-7 breast cancer cell xenograft; test: In vivo efficacy, MCF-7 breast cancer xenograft; set-up: species or system BALB/c nude mice; conditions: for Tumor volume 27 days after grouping: Mean ± SEM; for T/C / TGI: day 27
Procedure: This study was intended to evaluate the anti-tumor efficacy of compounds of the present application in MCF-7 breast cancer cell xenograft BALB/c nude mice (provided by Beijing Vital River Laboratory Animal Technology Co., Ltd., with the number of test animals in each experimental group being 7).
Three days before the xenograft, the mice were inoculated with 0.36 mg of 60-day sustained-release estrogen tablets subcutaneously on the left shoulder. In the logarithmic growth phase, the cells were collected and counted. The cell density was adjusted to 10×10^7 cells/mL, added with an equal volume of Matrigel and mixed for inoculation. Each mouse was xenografted subcutaneously with 0.2 mL of MCF-7 tumor cell suspension (10×10^6) on the right shoulder. On the 14th day after tumor cell xenograft, the mice were grouped and administered the drugs once a day, with an average tumor volume of 200 mm^3 and a body weight of 22.0-23.0 g. Tumor volume and body weight were measured twice a week after grouping. The tumor growth rate (T/C) and tumor growth inhibition rate (TGI) were calculated for the last tumor measurement data on the 27th day after grouping, and the anti-tumor efficacy of the compound was evaluated by TGI (%) or relative tumor proliferation rate T/C (%). TGI (%), reflects the tumor growth inhibition rate. TGI (%)=[(1-(average tumor volume at the end of treatment in a treatment group—average tumor volume at the start of treatment in the treatment group))/(average tumor volume at the end of treatment in the solvent control group—average tumor volume at the start of treatment in the solvent control group)]×100%, relative tumor proliferation rate T/C (%)=TRTV/CRTV×100% (TRTV: average RTV in the treatment group; CRTV: average RTV in the negative control group). Relative tumor volume (RTV) was calculated based on the results of tumor measurement. The formula is RTV=Vt/V0, wherein V0 is the tumor volume measured when grouping and administering (i.e., D0), and Vt is the tumor volume at a certain measurement, the data of TRTV and CRTV should be measured on the same day.

[2] = Pharmacokinetics study in rats (cassette); assay type: in vivo; conditions: female, SD, plasma, rat cassette PK
Text: (§1) Experimental objective: To determine the drug concentration in the plasma of the rats at different times after intravenous and oral administration of the test compounds by LC/MS/MS using female SD rats as the test animals. To investigate the pharmacokinetic performance of the test compounds in rats and to evaluate the pharmacokinetic characteristics.
Test animals: 4 healthy female SD rats were divided into 2 groups according to according to the principle of similar weight, 2 in the IV group and 2 in the PO group. Animal used in this study were purchased from Beijing Vital River Laboratory Animal Technology Co., Ltd.
(§2) IV group: Appropriate amounts of compounds were weighed respectively, prepared into 2 mg/mL solutions, then mixed to give a 0.5 mg/mL solution, which was stirred and ultrasonicated until a clear state. The vehicle was 15% HP-b-CD.
(§3) PO group: An appropriate amount of the IV group solution was taken and diluted to 0.4 mg/mL with 15% HP-b-CD.
(§4) Administration: After fasting overnight, the IV group was administered intravenously, and the dose of the test compound was 1 mg/kg; the PO group was administered intragastrically, and the dose of the test compound was 2 mg/kg.
(§5) Procedures: For IV group, 200 μL of blood was collected from the jugular vein of the female SD rats at 0.0833, 0.25, 0.5, 1, 2, 4, 8, and 24 hours post-dose, and placed in a commercial anticoagulant tube with EDTA-K2 added in advance. For PO group, 200 μL of blood was collected from the jugular vein of the female SD rats at 0.25, 0.5, 1, 2, 4, 8, 12 and 24 hours post-dose, and placed in a commercial anticoagulant tube with EDTA-K2 added in advance. The blood samples were centrifuged (3,200 g, 4° C., 10 minutes) to give plasma samples, which was transferred to a pre-cooled centrifuge tube, frozen in dry ice, and stored in an ultra-low temperature freezer at −60° C. or lower until the LC-MS/MS analysis. The animals were given free access to food 4 hours after the administration. LC/MS/MS method was used to determine the content of the test compounds in the plasma of […] after intravenous and oral administration. The linear range of the method is 2.00-2000 nM.

[3] = Pharmacokinetics study in mice (cassette); assay type: in vivo; conditions: female, Balb/c, plasma, mouse cassette PK
Text: as §1, with “Objective:” for “Experimental objective:”, “mice” for “rats”, “Balb/c mice” for “SD rats”
Test animals: 4 healthy female Balb/c mice were divided into 2 groups according to the principle of similar weight, 2 in the IV group and 2 in the PO group. The animals were purchased from Shanghai Lingchang Biotechnology Co., Ltd.
as §2, §3, §4
as §5, with “group, 30” for “group, 200”, “the saphenous” for “the jugular”, “female Balb/c mice” for “female SD rats”

[4] = Homo sapiens, MCF7, 144 h, 6 days incubation, CellTiter-Glo
[5] = iv, i.v. 1 mg/kg, read-out: Vdss
[6] = 6 days incubation, CellTiter-Glo

Structure (SMILES): CC/C(=C(/c1ccc(OCCNC/C=C/C(=O)N(C)C)nc1)c1[nH]c2ccccc2c1Cl)c1cccc(OC)c1 [Compound 4 monohydrochloride]
Tumor volume 27 days after grouping ([1]; 3 mg/kg once a day): 396 ± 58 mm^3
T/C ([1]; 3 mg/kg once a day): 28.74%
TGI ([1]; 3 mg/kg once a day): 83%
Tumor volume 27 days after grouping ([1]; 10 mg/kg once a day): 124 ± 5 mm^3
T/C ([1]; 10 mg/kg once a day): 9.32%
TGI ([1]; 10 mg/kg once a day): 106%
AUC(0-t) ([2]; iv, i.v. 1 mg/kg): 1.9 µM·h
clearance ([2]; iv, i.v. 1 mg/kg): 15.8 mL/min/kg
half-life ([2]; iv, i.v. 1 mg/kg): 3.98 h
Vd [2, 5]: 4.86 L/kg
AUC(0-t) ([2]; po, p.o. 2 mg/kg): 1.84 µM·h
Cmax ([2]; po, p.o. 2 mg/kg): 233 nM
Tmax ([2]; po, p.o. 2 mg/kg): 2 h
bioavailability ([2]; po, p.o. 2 mg/kg): 48.4%
half-life ([2]; po, p.o. 2 mg/kg): 3.26 h
AUC(0-t) ([3]; iv, i.v. 1 mg/kg): 1.1 µM·h
clearance ([3]; iv, i.v. 1 mg/kg): 26 mL/min/kg
half-life ([3]; iv, i.v. 1 mg/kg): 1.85 h
Vd [3, 5]: 3.45 L/kg
AUC(0-t) ([3]; po, p.o. 2 mg/kg): 0.503 µM·h
Cmax ([3]; po, p.o. 2 mg/kg): 159 nM
Tmax ([3]; po, p.o. 2 mg/kg): 0.25 h
bioavailability ([3]; po, p.o. 2 mg/kg): 22.9%
half-life ([3]; po, p.o. 2 mg/kg): 3.25 h

Structure (SMILES): CC/C(=C(/c1ccc(OCCN(C/C=C/C(=O)N(C)C)C(=O)OC(C)(C)C)nc1)c1[nH]c2ncccc2c1Cl)c1ccccc1 [Compound 5]
IC50 (MCF-7 cells; [6]): 4.74 nM

Structure (SMILES): CN(C)C(=O)/C=C/CNCCOc1ccc(/C(=C(/CC(F)(F)F)c2c(F)cncc2F)c2[nH]c3ccccc3c2Cl)cn1 [Compound 8]
IC50 (MCF-7 cells; [6]): 2.72 nM

Structure (SMILES): CN(C)C(=O)/C=C/CNCCOc1ccc(/C(=C(/CC(F)(F)F)c2ccc(F)cc2Cl)c2[nH]c3ccccc3c2Cl)cn1 [Compound 9]
IC50 (MCF-7 cells; [4]): 2.36 nM

Structure (SMILES): CN(C)C(=O)/C=C/CNCCOc1ccc(/C(=C(/CC(F)(F)F)c2ccccc2C#N)c2[nH]c3ccccc3c2Cl)cn1 [Compound 10]
IC50 (MCF-7 cells; [4]): 2.11 nM

Structure (SMILES): CC/C(=C(/c1ccc(OCCNC/C=C/C(=O)N(C)C)nc1)c1[nH]c2ccccc2c1Cl)c1csc(C)c1 [Compound 16]
IC50 (MCF-7 cells; [4]): 1.11 nM

Structure (SMILES): CC/C(=C(/c1ccc(OCCNC/C=C/C(=O)N(C)C)nc1)c1[nH]c2ccccc2c1Cl)c1ccc(F)cc1F [Compound 17]
IC50 (MCF-7 cells; [4]): 2.67 nM

Structure (SMILES): CC/C(=C(/c1ccc(OCCNC/C=C/C(=O)N(C)C)nc1)c1[nH]c2ccccc2c1Cl)c1cccc(C)c1 [Compound 18]
IC50 (MCF-7 cells; [4]): 2.35 nM

Structure (SMILES): CC/C(=C(/c1ccc(OCCNC/C=C/C(=O)N(C)C)nc1)c1[nH]c2ccccc2c1C)c1cccc(OC)c1 [Compound 20]
IC50 (MCF-7 cells; [4]): 1.46 nM

Structure (SMILES): CC/C(=C(/c1ccc(OCCNC/C=C/C(=O)N2CCC2)nc1)c1[nH]c2ccccc2c1Cl)c1ccccc1 [Compound 26]
IC50 (MCF-7 cells; Homo sapiens, MCF7, 144 h): 3.82 nM

Structure (SMILES): CC/C(=C(/c1ccc(OCCNC/C=C/C(=O)N2CC(CF)C2)nc1)c1[nH]c2ccccc2c1Cl)c1ccccc1 [Compound 27]
IC50 (MCF-7 cells; [4]): 0.49 nM

Continued by falling IC50 (MCF-7 cells; [4]), values first:

IC50 (MCF-7 cells; [4]): 4.25 nM
Structure (SMILES): C=CC(=O)NCCOc1ccc(/C(=C(/CC)c2ccc(F)cc2Cl)c2[nH]c3ccccc3c2Cl)cn1 [Compound 7]

IC50 (MCF-7 cells; [4]): 4.13 nM
Structure (SMILES): CC/C(=C(/c1ccc(OCCNC/C=C/C(=O)N(C)C)nc1)c1cc2ccccc2[nH]1)c1ccc(F)cc1Cl [Compound 11]

IC50 (MCF-7 cells; [4]): 2.75 nM
Structure (SMILES): CC/C(=C(/c1ccc(OCCNC/C=C/C(=O)N(C)C)nc1F)c1[nH]c2ccccc2c1Cl)c1cccc(OC)c1 [Compound 19]

IC50 (MCF-7 cells; [4]): 2.21 nM
Structure (SMILES): CC/C(=C(/c1ccc(OCCNC/C=C/C(=O)N(C)C)cc1)c1[nH]c2ccccc2c1Cl)c1cccc(OC)c1 [Compound 21]

IC50 (MCF-7 cells; [4]): 1.6 nM
Structure (SMILES): CC/C(=C(/c1ccc(OCCNC/C=C/C(=O)N(C)C)nc1)c1[nH]c2ccccc2c1Cl)c1ccc(Cl)cc1Cl [Compound 15]

IC50 (MCF-7 cells; [4]): 1 nM
Structure (SMILES): CC/C(=C(/c1ccc(OCCNC/C=C/C(=O)N(C)C)nc1)c1[nH]c2ccccc2c1Cl)c1ccccc1Cl [Compound 14]

IC50 (MCF-7 cells; [4]): 0.87 nM
Structure (SMILES): CC/C(=C(/c1ccc(OCCNC/C=C/C(=O)N(C)C)nc1)c1[nH]c2ccccc2c1Cl)c1ccccc1 [Compound 3]

IC50 (MCF-7 cells; [4]): 0.64 nM
Structure (SMILES): CC/C(=C(/c1ccc(OCCNC/C=C/C(=O)N(C)C)nc1)c1[nH]c2ccccc2c1Cl)c1ccccc1C#N [Compound 2]

IC50 (MCF-7 cells; [4]): 0.61 nM
Structure (SMILES): CC/C(=C(/c1ccc(OCCNC/C=C/C(=O)N(C)C)nc1)c1[nH]c2ccccc2c1Cl)c1cccc(OC)c1 [Compound 4]
